# In BindingDB's records for doi:10.1038/nchembio.2334 (University of North Carolina, 2017):
# pEC50: −log10 of the molar value.
# How the values were obtained:
# [1] = target: T1, Mas-related G-protein coupled receptor member X2 (Homo sapiens, UniProt Q96LB1); experiment: Intracellular Calcium Mobilization Assay; settings: pH 7.4; 30 °C
# T1 sequence (Q96LB1 whole entry): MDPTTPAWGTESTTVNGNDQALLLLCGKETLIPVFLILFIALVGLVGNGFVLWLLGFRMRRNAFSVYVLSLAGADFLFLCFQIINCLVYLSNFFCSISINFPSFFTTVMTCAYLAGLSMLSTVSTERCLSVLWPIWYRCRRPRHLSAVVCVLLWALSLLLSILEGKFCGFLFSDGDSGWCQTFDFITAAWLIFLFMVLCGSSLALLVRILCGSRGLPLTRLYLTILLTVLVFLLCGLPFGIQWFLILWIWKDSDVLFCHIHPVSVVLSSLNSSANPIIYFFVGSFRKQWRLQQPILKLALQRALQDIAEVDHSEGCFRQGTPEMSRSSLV
# Procedure: MRGPRX2 stable cells were maintained in DMEM containing 10% FBS, 100 μg/ml hygromycin B, and 15 μg/ml blasticidin. For the calcium mobilization assay, cells were plated into glass bottomed, poly-L-lysine coated, black 384 well plates at a density of 20,000 cells/well in medium containing 1% dialyzed FBS, 1 μg/ml tetracycline, 100 IU/ml penicillin and 100 μg/ml streptomycin and incubated 24 h. Following tetracycline induction, medium was removed and cells were loaded with 20 μl/well of 1× FLIPR Calcium dye (Molecular Devices) and 2.5 mM probenic acid, for 1 h in a humidified environment at 37 °C with 5% CO2. For mast cell calcium experiments, cells were seeded at a density of 50,000 cells/well in Tyrode's buffer containing 1× calcium dye and incubated for 1 h before treatment and analysis. After dye loading, baseline was measured for 10 s before drug treatment, and then cells were treated with 10 μl of 3× concentrated drug in drug buffer (1× HBSS with 20 mM HEPES and 2.5 mM probenic acid, pH 7.4) in 16 point concentration response curves from 100 μM to 0.003 nM.
# [2] = target: T1, Mas-related G-protein coupled receptor member X2; experiment: PRESTO-Tango Assay; settings: pH 7.4; 30 °C
# Procedure: HTLA cells (HEK-T cells stably expressing a β-arrestin2-TEV fusion protein and a tTa-dependent luciferase reporter) were maintained in DMEM (Corning) containing 10% FBS, 2 μg/ml puromycin and 100 μg/ml hygromycin B in a humidified atmosphere at 37 °C with 5% CO2. In brief, cells were plated to 50% confluency and transfected with a codon-optimized MRGPRX-Tango construct using the calcium phosphate method53. The next day, transfected cells were transferred to glass-bottomed, poly-L-lysine-coated white 384-well plates at a density of 20,000 cells/well. The following day, cells were treated with 10 μM concentrations of small molecules (in quadruplicate) diluted in drug buffer (1× HBSS with 20 mM HEPES and 0.3% bovine serum albumin, pH 7.4) and incubated for 18-24 h. After drug incubation, medium was removed and 20 μl of Bright-Glo (Promega; diluted 20-fold) was added to each well and incubated 15 min at room temperature.
SMILES,pEC50 [1],pEC50 [2]
COc1ccc2c3c1O[C@H]1[C@@H](OC(C)=O)C=C[C@H]4[C@@H](C2)N(C)CC[C@@]341 [6-Acetylcodeine],4.60,4.72
"C[C@@H]1C2Cc3ccc(O)cc3[C@]1(C)CCN2 [(6R,11S)-6,11-Dimethyl-1,2,3,4,5,6-hexahydro-2,6-methano-benzo[d]azocin-8-ol]",,4.30
CN1CC[C@]23CCCC[C@@H]2[C@H]1Cc1ccc(O)cc13 [Dextrorphan],5.41,5.38
C[C@@H]1[C@@H]2Cc3ccc(O)cc3[C@@]1(C)CCN2C [(+)-Metazocine],5.03,5.14
CN1CC[C@@]2(c3cccc(O)c3)Cc3nc4ccccc4cc3C[C@@H]2C1 [(+)-TAN-67],6.54,6.37
CN1CC[C@@]23CCCC[C@H]2[C@@H]1Cc1ccc(O)cc13 [Levorphanol],4.89,4.66
COc1ccc2c(c1)[C@@]13CCCC[C@@H]1[C@@H](C2)N(C)CC3 [Dextromethorphan],5.23,5.49
CC(C)C[C@H](NC(=O)[C@H](Cc1ccccc1)NC(=O)CNC(=O)CNC(=O)[C@@H](N)Cc1ccc(O)cc1)C(=O)N[C@@H](CCCNC(=N)N)C(=O)N[C@@H](CCCNC(=N)N)C(=O)N[C@@H](CCC(N)=O)C(=O)N[C@@H](Cc1ccccc1)C(=O)N[C@@H](CCCCN)C(=O)N[C@H](C(=O)N[C@H](C(=O)N[C@H](C(=O)O)[C@H](C)O)C(C)C)C(C)C [Dynorphin B (1-13)],5.19,4.48
"C[C@H]1C2Cc3ccc(O)cc3[C@@]1(C)CCN2 [(6S,11R)-6,11-Dimethyl-1,2,3,4,5,6-hexahydro-2,6-methano-benzo[d]azocin-8-ol]",4.89,4.85
CCC(=O)O[C@](Cc1ccccc1)(c1ccccc1)[C@H](C)CN(C)C [PROPOXYPHENE],4.49,4.82
CC[C@H](C)[C@H](NC(=O)[C@H](CCCNC(=N)N)NC(=O)[C@H](CCCNC(=N)N)NC(=O)[C@H](CC(C)C)NC(=O)[C@H](Cc1ccccc1)NC(=O)CNC(=O)CNC(=O)[C@@H](N)Cc1ccc(O)cc1)C(=O)N[C@@H](CCCNC(=N)N)C(=O)N1CCC[C@H]1C(=O)N[C@@H](CCCCN)C(=O)N[C@@H](CC(C)C)C(=O)N[C@@H](CCCCN)C(=O)N[C@@H](Cc1c[nH]c2ccccc12)C(=O)N[C@@H](CC(=O)O)C(=O)N[C@@H](CC(N)=O)C(=O)N[C@@H](CCC(N)=O)C(=O)O [Dynorphin A (1-17)],5.64,4.68
CC(=O)O[C@H]1C=C[C@H]2[C@H]3Cc4ccc(O)c5c4[C@@]2(CCN3C)[C@H]1O5 [6-Acetylmorphine],4.68,4.92
COC1=CC=C2[C@H]3Cc4ccc(OC)c5c4[C@@]2(CCN3C)[C@H]1O5 [Thebaine],4.12,4.96
